From patent publication US7541383B2, “Asthma and allergic inflammation modulators” (Amgen Inc., priority 2002, dated 2009)

Biological target: T1, human CRTH2 (Homo sapiens, UniProt Q9Y5Y4)
T1 construct: Full-length human CRTH2 cDNA was generated by polymerase chain reaction (PCR); expressed in transfected cells; host or cells: 293 cells stably transfected with pHLT124 (pCDNA3.1(+)), named 293(124)
T1 sequence (Q9Y5Y4 1-395): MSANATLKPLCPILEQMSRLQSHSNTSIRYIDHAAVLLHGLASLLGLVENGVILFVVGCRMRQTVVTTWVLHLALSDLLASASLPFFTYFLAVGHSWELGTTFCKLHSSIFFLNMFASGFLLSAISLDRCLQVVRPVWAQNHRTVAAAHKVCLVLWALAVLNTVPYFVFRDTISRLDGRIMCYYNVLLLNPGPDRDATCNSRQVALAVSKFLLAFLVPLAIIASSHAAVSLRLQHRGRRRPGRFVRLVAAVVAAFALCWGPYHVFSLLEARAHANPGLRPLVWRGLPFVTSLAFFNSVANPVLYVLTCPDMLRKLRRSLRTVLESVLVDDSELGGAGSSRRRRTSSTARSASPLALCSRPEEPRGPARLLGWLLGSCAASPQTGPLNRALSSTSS
Test: Human CRTH2 binding assay (3H-PGD2 ligand binding, 293(124) cells)
Conditions: 3H-PGD2 binding to 293(124) cells stably expressing human CRTH2; room temperature, 2.5 h
Protocol: Full-length human CRTH2 cDNA was generated by polymerase chain reaction (PCR) using human genomic DNA as template and subsequently cloned into pCDNA3.1(+) (Invitrogen), generating a CRTH2 expression plasmid pHLT124. The plasmid was transfected into 293 cells, […], using LipofectAMINE™ reagents (Gibco/BRL). G418 ([…]) was added to the culture 48 h after transfection and cells were maintained under selection for 3 weeks to ensure that all surviving cells stably expressed CRTH2. These cells are labeled as 293(124) hereafter.
^3H-PGD2 binding assay was performed using 293(124) cells. In brief, cells were washed and suspended in RPMI containing 0.5% BSA and 20 mM HEPES. Each assay contained 25,000 cells, appropriate amount of test compound when necessary and a mixture of 1 nM ^3H-PGD2 (Anmersham Pharmacia Biotech) and 30 nM of unlabeled PGD2 (Cayman Chemicals) in […] final volume. The cell mixture was incubated at room temperature for 2.5 h with shaking and the cells were separated from free ^3H-PGD2 and transferred onto a filter plate using a cell harvester. Radioactivity bound to the cells was measured on a liquid scintillation counter. Nonspecific binding was determined in the presence of […] of unlabeled PGD2.

IC50 [nM]	Compound
< 1000	CCNC(=O)c1ccc(C(=O)c2cc(CC(=O)O)ccc2OC)c(NS(=O)(=O)c2ccc(C)cc2)c1 [Example 70]
< 1000	Cc1ccc(S(=O)(=O)Nc2ccccc2Cc2ccc(CC(=O)O)cc2)cc1 [Example 64]
1000 to 15000	O=C(O)Cc1cn(Cc2ccccc2NCc2ccccc2)c2ccccc12 [Example 63]
< 1000	CCNC(=O)c1ccc(Oc2ccc(Cc3nnn[nH]3)cc2OC)c(NS(=O)(=O)c2ccc(Cl)cc2Cl)c1 [Example 75, 3-(2,4-Dichloro-benzenesulfonylamino)-N-ethyl-4-[2-methoxy-4-(1H-tetrazol-5-ylmethyl)-phenoxy]-benzamide]
1000 to 15000	CCNC(=O)c1ccc(Oc2cc(CC(=O)O)ccc2OC)c(NC(=O)OC(C)C)c1 [Example 77, [3-(4-Ethylcarbamoyl-2-isopropoxycarbonylamino-phenoxy)-4-methoxy-phenyl]-acetic acid]
1000 to 15000	COc1ccc(Oc2cccc(CC(=O)O)c2)c(NS(=O)(=O)c2ccccc2)c1 [Example 36, 3-(4-Methoxy-2-benzenesulfonylamino-phenoxy)phenylacetic acid]

Second part, the compound before the results:

Compound	IC50 [nM]
CCOC(=O)Cc1cccc(Oc2ccccc2[N+](=O)[O-])c1 [Example 31, Ethyl 3-(2-nitrophenoxy)phenylacetate]	> 15000
O=C(O)Cc1cccc(Oc2ccc(C(=O)c3ccccc3)cc2NS(=O)(=O)c2ccccc2)c1 [Example 33, 3-(4-Benzoyl-2-benzenesulfonylamino-phenoxy)phenylacetic acid]	1000 to 15000
Cc1ccc(S(=O)(=O)Nc2cc(C(F)(F)F)ccc2Oc2ccc(CC(=O)O)cc2)cc1 [Example 1, {4-[2-(toluene-4-sulfonylamino)-4-trifluoromethyl-phenoxy]-phenyl}-acetic acid]	1000 to 15000
CCNC(=O)c1ccc(S(=O)(=O)c2ccc(CC(=O)O)cc2)c(NS(=O)(=O)c2ccc(Cl)cc2Cl)c1 [Example 17, {4-[2-(2,4-dichloro-benzenesulfonyl-amino)-4-ethylcarbamoyl-benzenesulfonyl]-phenyl}-acetic acid]	1000 to 15000
CCNC(=O)c1ccc(Oc2ccc(CC(=O)O)cc2OC)c(NS(=O)(=O)c2ccc(Cl)cc2Cl)c1 [Example 12, (4-[2-(2,4-Dichloro-benzenesulfonyl-amino)-4-ethylcarbamoyl-phenoxy]-3-methoxy-phenyl)-acetic acid]	< 1000
O=C(O)Cc1ccc(Oc2ccc(C(F)(F)F)cc2NC(=O)c2ccccc2)cc1 [Example 3, [4-(2-Benzoylamino-4-trifluoromethyl-phenoxy)-phenyl]-acetic acid]	1000 to 15000
CCNC(=O)c1cc(NS(=O)(=O)c2ccc(Cl)cc2Cl)c2oc3c(Cl)cc(CC(=O)O)cc3c2c1 [Example 18, [4-chloro-6-(2,4-dichloro-benzenesulfonyl-amino)-8-ethylcarbamoyl-dibenzofuran-2-yl]-acetic acid]	< 1000
O=C(O)Cc1cccc(Oc2ccc(Cl)cc2NS(=O)(=O)c2ccccc2)c1 [Example 35, 3-(4-Chloro-2-benzenesulfonylamino-phenoxy)phenylacetic acid]	< 1000
CS(=O)(=O)Nc1cc(C(F)(F)F)ccc1Oc1ccc(CC(=O)O)cc1 [Example 4, [4-(2-Methanesulfonylamino-4-trifluoromethyl-phenoxy)-phenyl]-acetic acid]	> 15000
O=C(O)Cc1cc(OCc2ccccc2)cc(C(F)(F)F)c1 [Example 5, (3-benzyloxy-5-trifluoromethyl-phenyl)-acetic acid]	1000 to 15000
CCNC(=O)c1ccc(Oc2ccc(CCC(=O)O)cc2)c(NS(=O)(=O)c2ccccc2)c1 [Example 10, 3-[4-(2-Benzenesulfonylamino-4-ethylcarbamoyl-phenoxy)-phenyl]-propionic acid]	< 1000
O=C(O)Cc1ccc(Oc2ccc(C(F)(F)F)cc2NS(=O)(=O)c2cccc3ccccc23)cc1 [Example 2, {4-[2-(Naphthalene-1-sulfonylamino)-4-trifluoromethyl-phenoxy]-phenyl}-acetic acid]	1000 to 15000
